Test: Replicon Assay (luciferase, ET cell line)
Format: cell-based, HCV
Conditions: Hepatitis C virus; % inhibition of replication relative to no compound control, test concentration of 10 μM; ET cells, luciferase read 48-72 hours; read-out: % inhib at 10 uM
Protocol: A cell line, ET (Huh-lucubineo-ET) was used for screening of compounds of the present invention for HCV RNA dependent RNA polymerase. The ET cell line was stably transfected with RNA transcripts harboring a I389luc-ubi-neo/NS3-3′/ET; replicon with firefly luciferase-ubiquitin-neomycin phosphotransferase fusion protein and EMCV-IRES driven NS3-5B polyprotein containing the cell culture adaptive mutations (E1202G; T1280I; K1846T) (Krieger at al, 2001 and unpublished). The ET cells were grown in DMEM, supplemented with 10% fetal calf serum, 2 mM Glutamine, Penicillin (100 IU/mL)/Stretomycin (100 μg/mL), 1× nonessential amino acids, and 250 μg/mL G418 (“Geneticin”). They were all available through Life Technologies (Bethesda, Md.). The cells were plated at 0.5−1.0×10^4 cells/well in the 96 well plates and incubated for 24 hrs before adding nucleoside analogs. […] Luciferase activity were measured 48-72 hours later by adding a lysis buffer and the substrate (Catalog number Glo-lysis buffer E2661 and Bright-Glo luciferase system E2620 Promega, Madison, Wis.). Cells should not be too confluent during the assay. Percent inhibition of replication was plotted relative to no compound control. Under the same condition, cytotoxicity of the compounds was determined using cell proliferation reagent, WST-1 (Roche, Germany). The compounds showing antiviral activities, but no significant cytotoxicities were chosen to determine IC50 and TC50. For these determinations, 10 concentration of each compound were used. Concentrations for test compounds typically span a range of 500 fold. IC50 and TC50 values were calculated by fitting % inhibition at each concentration (I) to the following equation: % inhibition=100%/[1+10^(log IC50−log(I))*b] where b is Hill's coefficient.

| Compound | inhibition at 10 µM |
| --- | --- |
| CC1=NN(c2ccccc2)C(=O)/C1=C\c1ccc(NC(=O)[C@@H]2CCCN2C(=O)OCc2ccccc2)cc1 (stereo in doubt) [Compound 6005, 2-[4-(3-Methyl-5-oxo-1-phenyl-1,5-dihydro-pyrazol-4-ylidenemethyl)-phenylcarbamoyl]-pyrrolidine-1-carboxylic acid benzyl ester] | 3.63% |
| Cc1c(Br)cc2[nH]c(Cc3ccc(NC(=O)[C@@H]4CCCN4C(=O)OCc4ccccc4)cc3)nc2c1C (stereo in doubt) [Compound 6006, 2-[4-(6-Bromo-4,5-dimethyl-1H-benzoimidazol-2-ylmethyl)-phenylcarbamoyl]-pyrrolidine-1-carboxylic acid benzyl ester] | 70% |
| Cc1ccc(S(=O)(=O)c2ccc(Oc3cccc(NC(=O)[C@@H]4CCCN4C(=O)OCc4ccccc4)c3)cc2)cc1 (stereo in doubt) [Compound 6027, 2-{3-[4-(Toluene-4-sulfonyl)-phenoxy]-phenylcarbamoyl}-pyrrolidine-1-carboxylic acid benzyl ester] | 98.1% |
| COc1cccc(OC)c1-c1cccc(NC(=O)[C@@H]2CCCN2C(=O)OCc2ccccc2)c1 (stereo in doubt) [Compound 6033, 2-(2′,6′-Dimethoxybiphenyl-3-yl-carbamoyl)-pyrrolidine-1-carboxylic acid benzyl ester] | 8.26% |
| O=C(Nc1ccc(Cc2nc3ccccc3[nH]2)cc1)[C@@H]1CCCN1C(=O)OCc1ccccc1 (stereo in doubt) [Compound 6038, 2-[4-(1H-Benzoimidazol-2-ylmethyl)-phenylcarbamoyl]-pyrrolidine-1-carboxylic acid benzyl ester] | 9.34% |
| Cc1cccc(Oc2cc(NC(=O)[C@@H]3CCCN3C(=O)OCc3ccccc3)cc([N+](=O)[O-])c2)c1 (stereo in doubt) [Compound 6039, 2-(3-Nitro-5-m-tolyloxy-phenylcarbamoyl)-pyrrolidine-1-carboxylic acid benzyl ester] | 33.8% |
| COc1ccc(-c2ccc(NC(=O)[C@@H]3CCCN3C(=O)OCc3ccccc3)cc2)c(OC)c1 [Compound 6001, 2-(2′,4′-Dimethoxy-biphenyl-4-ylcarbamoyl)-pyrrolidine-1-carboxylic acid benzyl ester] | 87.8% |
| O=C(Nc1ccc(NS(=O)(=O)c2ccccc2)cc1)[C@@H]1CCCN1C(=O)OCc1ccccc1 [Compound 6002, 2-(4-Benzenesulfonylamino-phenylcarbamoyl)-pyrrolidine-1-carboxylic acid benzyl ester] | 2.69% |
| CC1CCN(S(=O)(=O)c2ccc(NC(=O)[C@@H]3CCCN3C(=O)OCc3ccccc3)cc2)CC1 [Compound 6003, 2-[4-(4-Methyl-piperidine-1-sulfonyl)-phenylcarbamoyl]-pyrrolidine-1-carboxylic acid benzyl ester] | 1.21% |
| O=C(Nc1c(Cl)cccc1Cl)c1ccc(NC(=O)[C@@H]2CCCN2C(=O)OCc2ccccc2)cc1 [Compound 6004, 2-[4-(2,6-Dichloro-phenylcarbamoyl)-phenylcarbamoyl]-pyrrolidine-1-carboxylic acid benzyl ester] | 2.08% |
| COc1ccc(OC)c(-c2ccc(NC(=O)[C@@H]3CCCN3C(=O)OCc3ccccc3)cc2)c1 [Compound 6007, 2-(2′,5′-Dimethoxy-biphenyl-4-ylcarbamoyl)-pyrrolidine-1-carboxylic acid benzyl ester] | 93.4% |
| COc1cccc(-c2cccc(NC(=O)[C@@H]3CCCN3C(=O)OCc3ccccc3)c2)c1 [Compound 6008, 2-(3′-Methoxy-biphenyl-3-ylcarbamoyl)-pyrrolidine-1-carboxylic acid benzyl ester] | 79.8% |
| O=C(Nc1ccc(-c2ccc3[nH]ccc3c2)cc1)[C@@H]1CCCN1C(=O)OCc1ccccc1 [Compound 6009, 2-[4-(1H-Indol-5-yl)-phenylcarbamoyl]-pyrrolidine-1-carboxylic acid benzyl ester] | 83.3% |
| O=C(Nc1cccc(-c2ccc3[nH]ccc3c2)c1)[C@@H]1CCCN1C(=O)OCc1ccccc1 [Compound 6010, 2-[3-(1H-Indol-5-yl)-phenylcarbamoyl]-pyrrolidine-1-carboxylic acid benzyl ester] | 98.6% |
| O=C(Nc1ccc(-c2cccc(-c3ccccc3)c2)cc1)[C@@H]1CCCN1C(=O)OCc1ccccc1 [Compound 6011, 2-([1,1′;3′,1″]Terphenyl-4-ylcarbamoyl)-pyrrolidine-1-carboxylic acid benzyl ester] | 99.7% |
| O=C(Nc1cccc(Oc2c(F)c(F)c(F)c(F)c2F)c1)[C@@H]1CCCN1C(=O)OCc1ccccc1 [Compound 6012, 2-(3-Pentafluorophenyloxy-phenylcarbamoyl)-pyrrolidine-1-carboxylic acid benzyl ester] | 44.5% |
| O=C(Nc1cccc(S(=O)(=O)c2ccccc2)c1)[C@@H]1CCCN1C(=O)OCc1ccccc1 [Compound 6013, 2-(3-Benzenesulfonyl-phenylcarbamoyl)-pyrrolidine-1-carboxylic acid benzyl ester] | 32.5% |
| Cc1cc2nc(Cc3ccc(NC(=O)[C@@H]4CCCN4C(=O)OCc4ccccc4)cc3)[nH]c2cc1C [Compound 6014, 2-[4-(5,6-Dimethyl-1H-benzoimidazol-2-ylmethyl)-phenylcarbamoyl]-pyrrolidine-1-carboxylic acid benzyl ester] | 99.6% |
| COc1ccc(-c2ccc(NC(=O)[C@@H]3CCCN3C(=O)OCc3ccccc3)cc2)cc1 [Compound 6019, 2-(4′-Methoxy-biphenyl-4-ylcarbamoyl)-pyrrolidine-1-carboxylic acid benzyl ester] | 10.5% |
| O=C(Nc1ccc(Cc2nc3cc4ccccc4cc3[nH]2)cc1)[C@@H]1CCCN1C(=O)OCc1ccccc1 [Compound 6020, 2-[4-(1H-Naphtho[2,3-d]imidazol-2-ylmethyl)-phenylcarbamoyl]-pyrrolidine-1-carboxylic acid benzyl ester] | 99.9% |
| O=C(Nc1ccc(-c2cccc(COc3ccccc3)c2)cc1)[C@@H]1CCCN1C(=O)OCc1ccccc1 [Compound 6021, 2-(3′-Phenoxymethyl-biphenyl-4-ylcarbamoyl)-pyrrolidine-1-carboxylic acid benzyl ester] | 56.1% |
| O=C(Nc1cccc(-c2cccs2)c1)[C@@H]1CCCN1C(=O)OCc1ccccc1 [Compound 6022, 2-(3-Thiophen-2-yl-phenylcarbamoyl)-pyrrolidine-1-carboxylic acid benzyl ester] | 87.3% |
| O=C(Nc1ccc(-c2cccs2)cc1)[C@@H]1CCCN1C(=O)OCc1ccccc1 [Compound 6023, 2-(4-Thiophen-2-yl-phenylcarbamoyl)-pyrrolidine-1-carboxylic acid benzyl ester] | 75.4% |
| O=C(Nc1cc(Oc2ccccc2)cc(Oc2cccnc2)c1)[C@@H]1CCCN1C(=O)OCc1ccccc1 [Compound 6024, 2-[3-Phenoxy-5-(pyridin-3-yloxy)-phenylcarbamoyl]-pyrrolidine-1-carboxylic acid benzyl ester] | 98.1% |
| O=C(Nc1ccc(-c2nnc(-c3ccco3)o2)cc1)[C@@H]1CCCN1C(=O)OCc1ccccc1 [Compound 6025, 2-[4-(5-Furan-2-yl-[1,3,4]oxadiazol-2-yl)-phenylcarbamoyl]-pyrrolidine-1-carboxylic acid benzyl ester] | 5.45% |
| COc1cccc(-c2cccc(NC(=O)[C@@H]3CCCN3C(=O)OCc3ccccc3)c2)c1OC [Compound 6026, 2-(2′,3′-Dimethoxybiphenyl-3-yl-carbamoyl)-pyrrolidine-1-carboxylic acid benzyl ester] | 98.7% |
| COc1cccc(-c2ccc(NC(=O)[C@@H]3CCCN3C(=O)OCc3ccccc3)cc2)c1OC [Compound 6028, 2-(2′,3′-Dimethoxy-biphenyl-4-ylcarbamoyl)-pyrrolidine-1-carboxylic acid benzyl ester] | 75% |
| COc1ccc(-c2cccc(NC(=O)[C@@H]3CCCN3C(=O)OCc3ccccc3)c2)cc1OC [Compound 6029, 2-(3′,4′-Dimethoxybiphenyl-3-yl-carbamoyl)-pyrrolidine-1-carboxylic acid benzyl ester] | 3.08% |
| COc1ccc2nc(NC(=O)c3ccc(NC(=O)[C@@H]4CCCN4C(=O)OCc4ccccc4)cc3)sc2c1 [Compound 6030, 2-[4-(6-Methoxy-benzothiazol-2-ylcarbamoyl)-phenylcarbamoyl]-pyrrolidine-1-carboxylic acid benzyl ester] | 42.2% |
| COc1ccccc1-c1cccc(NC(=O)[C@@H]2CCCN2C(=O)OCc2ccccc2)c1 [Compound 6031, 2-(2′-Methoxybiphenyl-3-yl-carbamoyl)-pyrrolidine-1-carboxylic acid benzyl ester] | 28.6% |

Reference: patent US7629340B2, “N-(6-membered aromatic ring)-amido anti-viral compounds” (SmithKline Beecham Corporation, priority 2005, dated 2009)
